Test results reported in patent US9242009B2, “Compositions and methods to treat neurodegenerative diseases” (The General Hospital Corporation, priority 2012, dated 2016).

Tests used:
[1] = tested on: SH-SY5Y cells; test: Intracellular sulfide levels in SH-SY5Y cells (HPLC); assay type: cell-based, Human; settings: 20 μM, SH-SY5Y
Protocol: Human neuroblastoma SH-SY5Y cells were cultured in Eagle's medium/Ham's F-12 50/50 Mix (DMEM/F12, Cellgro by Mediatech, Inc.) supplemented with 10% fetal bovine serum (FBS) and 1% penicillin/streptomycin. The cells were seeded into 96 well plates (2×10^4 cells per well) for OGD and measurements of toxicity, 6 cm dishes (5×10^5 cells per dish) for measurements of sulfide and reduced-glutathione (GSH), or 10 cm dishes (1×10^6 cells per dish) for measurements of intracellular calcium. Cell culture medium was replaced every 2 days, and the cultures were maintained at 37° C. in 95% air/5% CO2 in a humidified incubator. Cells were used after reaching 80% confluent.
Concentration of free sulfide in SH-SY5Y cells was measured using high performance liquid chromatography (HPLC) (Tokuda et al. (2012) Antioxidants & Redox Signaling). Briefly, SH-SY5Y cells were seeded into 6 cm dishes (5×10^5 cells per dish). After being 80% confluent, 20 μM H2S donor was added to the dish and incubated at 37° C. Cells were washed with ice-cold Tris-HCl (100 mM, PH 9.5, DTPA 0.1 mM) buffer, scraped, transferred to microfuge tubes, and centrifuged. MBB (10 mM in acetonitrile, 50 μl) was added to 100 μl of supernatant. After 30 minutes of incubation at room temperature in dark, 50 μl of 200 mM 5-sulfosalicylic acid (SSA) was added. After centrifugation, supernatant was analyzed by HPLC. For sulfide levels in medium, after centrifugation, supernatant was used for MBB reaction as above.
In contrast, incubation of SH-SY5Y cells with S-memantine increased intracellular sulfide level more markedly than incubation with ACS48 at all time points after addition (˜10 fold at 4 hours, P<0.001 by two-way ANOVA with Bonferroni post-test). In a separate experiment, we examined whether or not incubation with memantine itself or incubation with ACS48 and memantine would affect intracellular sulfide levels in SH-SY5Y cells.

[2] = tested on: SH-SY5Y cells; test: Oxygen-glucose deprivation (OGD) of SH-SY5Y cells, viability by LDH release, MTT and CV assays; assay type: cell-based, Human
Protocol: OGD for SH-SY5Y was performed by placing cells in a hypoxia chamber ([…] Technologies Inc.) for 15 hours, followed by 24 hours of reoxygenation as previously reported (FIG. 3A) (Serra-Pérez et al. (2008) Journal of Neurochemistry 106, 1237-1247). Briefly, medium was replaced with glucose-free RPMI 1640 with L-glutamine (Cellgro by Mediatech, Inc), deoxygenated with anaerobic gas mixture (93% N2-5% CO2-2% H2) for 30 minutes before use. Cells were then placed in a hypoxia chamber, flushed with anaerobic gas mixture (93% N2-5% CO2-2% H2) and incubated at 37° C. After 15 hours of hypoxia, medium was replaced with DMEM/F12 and incubated for 24 hours at 37° C. in 95% air/5% CO2 in a humidified incubator.
A microtiter plate containing cells was centrifuged at 250×g for 10 minutes and the supernatant was used for LDH measurement with LDH Cytotoxicity Detection Kit (Roche). After aspirating the medium, remaining cells were washed with PBS, then, 100 μl of 1% Triton-X was added to each well, followed by incubation at 37° C. for 30 minutes. Medium and lysates were used for LDH measurement at wavelength 492 nm. Percentage of released LDH was calculated with following formula: {LDH (medium)/LDH (medium+cell)×100}. Average value of control (cells without OGD) was deducted as background.
Ten μl of thiazolyl blue tetrazolium bromide solution (5 mg/ml in PH 7.4 PBS) was added to each well containing 100 μl of medium and cells, followed by incubation at 37° C. for 4 hours in the dark. Isopropanol (100 μl, 0.04 N HCl) was added to dissolve blue dye. After dissolved completely, absorbance was measured with plate-reader (Synergy 2, BioTek Instrument) at test wavelength 570 nm and reference wavelength 670 nm. Cell viability was determined by absorbance at 570 nm and reported as ratio to control cells (without OGD).
After aspirating culture medium, cells were fixed and stained by 0.5% CV in 95% (v/v) ethanol for 5 minutes, then washed by tap water several times. After taking photographs, 1% sodium dodecylsulfate solution was added to each well to elute blue dye. Absorbance was measured with plate-reader at 595 nm of wavelength. Values were shown as ratio to control (cells without OGD).

[3] = Plasma and cerebral sulfide levels of mice after intraperitoneal administration; assay type: in vivo; settings: 25 μmol/kg intraperitoneal, 90 minutes after administration
Text: Blood was drawn from left ventricle and centrifuged to collect the plasma. After perfusion with Tris-HCl buffer via left ventricle, brain was harvested, homogenized in Tris-HCl, and centrifuged. Plasma and supernatant of brain homogenate were derivatized with MBB and analyzed by HPLC.

[4] = tested on: SH-SY5Y; test: Amyloid beta-induced toxicity in SH-SY5Y (LDH release, MTT); assay type: cell-based, Human; settings: 24 hours incubation with Aβ1-42 at 20 μM
Protocol: FIG. 12A-B is a set of two bar graphs showing cell viability of SH-SY5Y cells exposed to 20 μM amyloid beta (Aβ) and treated with memantine, ACS48, or S-memantine at 20 or 50 μM. Cell viability was estimated by LDH release assay in the left graph and MTT assay in the right graph.

[5] = tested on: murine primary cortical neurons; test: Amyloid beta-induced toxicity in murine primary cortical neurons (LDH release, MTT); assay type: cell-based, mice; settings: 24 hours incubation with Aβ1-42 at 20 μM
Protocol: FIG. 13A-B is a set of two bar graphs depicting cell viability of murine primary cortical neurons exposed to 20 μM amyloid beta (Aβ) and treated with memantine, ACS48, or S-memantine at 5, 10, or 30 μM. Cell viability was estimated by LDH release assay in the left graph and MTT assay in the right graph.

[6] = time- and dose-range studies, SH-SY5Y

## C[C@]12C[C@@H]3C[C@](C)(C1)C[C@@](NC(=O)c1ccc(-c4cssc4=S)cc1)(C3)C2 [S-memantine, N-((1r,3R,5S,7r)-3,5-dimethyladamantan-1-yl)-4-(3-thioxo-3H-1,2-dithiol-4-yl)-benzamide]
[1]; 37° C.
  Intracellular sulfide levels: increased intracellular sulfide levels
[1]; at 4 hours
  Intracellular sulfide level relative to incubation with ACS48: ~10 fold
[2]; 50 μM added 8 hours after the end of OGD, 15 hours OGD, 24 hours reoxygenation
  Cell viability after OGD (LDH release, MTT, CV assays): improved the viability of SH-SY5Y cells more markedly than did addition of ACS48 or memantine
[2]; incubation starting at any time between pre-OGD and up to 8 hours after OGD
  Cell viability after OGD: improved
[2]; [6]
  Most effective dose to improve viability after OGD: 50 µM
  Most effective time point of addition after the end of OGD: 8 h
[3]
  Cerebral sulfide levels: increased
  Plasma sulfide levels: increased plasma sulfide levels
[4]
  Cell viabilities after Aβ1-42 compared with memantine: improved cell viabilities more markedly than did memantine
[4]; compound 20 or 50 μM
  Cell viabilities after Aβ1-42: improved cell viabilities
[5]
  Cell viabilities after Aβ1-42 compared with memantine: improved cell viabilities more markedly than did memantine
[5]; compound 5, 10 or 30 μM
  Cell viabilities after Aβ1-42: improved cell viabilities
